This assay concerns T1, cholesterol oxidase from Streptomyces aegyptia NEAE 102.
T1 construct: gene choA; native extracellular enzyme purified from culture supernatant (ammonium sulfate, DEAE Sepharose CL-6B); 46 kDa by SDS-PAGE
Kind of assay: peroxidase-coupled H2O2 assay (4-aminoantipyrine/phenol, […] nm); Michaelis-Menten nonlinear regression. In kind it is biochemical. As to conditions: pH 7.0 potassium phosphate, 37 °C, Triton X-100; O2 as co-substrate.

Here are results for one compound from PMC5372259, “Purification, characterization and amino acid content of cholesterol oxidase produced by Streptomyces aegyptia NEAE 102” (BMC Microbiology, 2017).

`CC(C)CCC[C@@H](C)[C@H]1CC[C@H]2[C@@H]3CC=C4C[C@@H](O)CC[C@]4(C)[C@H]3CC[C@]12C` [cholesterol]: the Km was found to be 152 µM.

The term Km denotes the substrate concentration at which the rate is half of its maximum.
